Experimental data as given in PubChem BioAssay AID330 (DTP/NCI, 2004).
“And” between values parts separate entries of the source, which are not always exact repeats. Equal entries are not always repeated. Toxic doses and inconclusive results are not listed. Rule for the calls: active = survival T/C of 150% or more; inactive = T/C below 125% in these data.

Tested on: P388 leukemia ip, CD2F1 mice, survival T/C
Assay: NCI In Vivo Anticancer Drug Screen. Data for tumor model P388 Leukemia (intraperitoneal) in CD2F1 (CDF1) mice
Conditions: endpoint: median survival time, higher = longer survival
In short: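 Mice carrying the transplanted tumor received test compound or vehicle. Survival was recorded in each group, and the value is the treated-group measurement divided by that of the vehicle-treated control group.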

[1] = dose: 25.0 mg/kg/injection, schedule: Q01DX009 (ip), vehicle: saline
[2] = dose: 50.0 mg/kg/injection, schedule: Q01DX009 (ip), vehicle: saline
[3] = dose: 100.0 mg/kg/injection, schedule: Q01DX009 (ip), vehicle: saline
[4] = dose: 200.0 mg/kg/injection, schedule: Q01DX009 (ip), vehicle: saline
[5] = dose: 400.0 mg/kg/injection, schedule: Q01DX009 (ip), vehicle: saline
[6] = dose: 100.0 mg/kg/injection, schedule: Q01DX001 (ip), vehicle: Klucel (hydroxypropylcellulose) (HPC)
[7] = dose: 200.0 mg/kg/injection, schedule: Q01DX001 (ip), vehicle: Klucel (hydroxypropylcellulose) (HPC)
[8] = dose: 25.0 mg/kg/injection, schedule: Q01DX005 (ip), vehicle: Klucel (hydroxypropylcellulose) (HPC)
[9] = dose: 50.0 mg/kg/injection, schedule: Q01DX005 (ip), vehicle: Klucel (hydroxypropylcellulose) (HPC)
[10] = dose: 50.0 mg/kg/injection, schedule: Q01DX009 (ip), vehicle: saline with Tween-80
[11] = dose: 100.0 mg/kg/injection, schedule: Q01DX009 (ip), vehicle: saline with Tween-80
[12] = dose: 60.0 mg/kg/injection, schedule: Q01DX005 (ip), vehicle: saline with Tween-80
[13] = dose: 120.0 mg/kg/injection, schedule: Q01DX005 (ip), vehicle: saline with Tween-80
[14] = dose: 100.0 mg/kg/injection, schedule: Q01DX005 (ip), vehicle: Klucel (hydroxypropylcellulose) (HPC)
[15] = dose: 200.0 mg/kg/injection, schedule: Q01DX005 (ip), vehicle: Klucel (hydroxypropylcellulose) (HPC)

Measured: T/C

Nc1ccn(C2OC3COC2C3O)c(=O)n1 (stereo not given)
inactive: [1] 112 % of control | dose: 50.0 mg/kg/injection, schedule: Q01DX009 (ip), vehicle: saline + alcohol 100 % of control | [2] 110 % of control | dose: 100.0 mg/kg/injection, schedule: Q01DX009 (ip), vehicle: saline + alcohol 105 % of control | [3] 116 % of control | dose: 200.0 mg/kg/injection, schedule: Q01DX009 (ip), vehicle: saline + alcohol 112 % of control | [4] 117 % of control | dose: 400.0 mg/kg/injection, schedule: Q01DX009 (ip), vehicle: saline + alcohol 112 % of control | [5] 122 % of control | dose: 800.0 mg/kg/injection, schedule: Q01DX009 (ip), vehicle: saline + alcohol 114 % of control

Cc1cc(Cl)nn2cc(C(=O)O)nc12
inactive: dose: 50.0 mg/kg/injection, schedule: Q01DX001 (ip), vehicle: Klucel (hydroxypropylcellulose) (HPC) 104 % of control | [6] 96 % of control | [7] 97 % of control

O=C(/C=C\c1ccc(O)c(O)c1)O[C@@H]1C[C@](O)(C(=O)O)C[C@@H](O)[C@H]1O
inactive: dose: 50.0 mg/kg/injection, schedule: Q04DX003 (ip), vehicle: saline 100 % of control | dose: 100.0 mg/kg/injection, schedule: Q04DX003 (ip), vehicle: saline 100 % of control | dose: 200.0 mg/kg/injection, schedule: Q04DX003 (ip), vehicle: saline 105 % of control

CC(C)N(C(=S)Sc1c2ccccc2c(Br)c2ccccc12)C(C)C
inactive: dose: 12.5 mg/kg/injection, schedule: Q01DX005 (ip), vehicle: Klucel (hydroxypropylcellulose) (HPC) 108 % of control | [8] 102 % of control | [9] 99 % of control and 89 % of control

Nc1n[nH]c(-c2ccccc2)n1
inactive: [10] 117 % of control | [11] 101 % of control

Cc1nc2cc(N)c(Cl)cc2[nH]1
inactive: [12] 104 % of control | [13] 107 % of control

Oc1cc2c(cc1C(c1ccc3c(c1)OCO3)N1CCN(C(c3ccc4c(c3)OCO4)c3cc4c(cc3O)OCO4)CC1)OCO2 (stereo not given)
inactive: [12] 89 % of control | [13] 87 % of control | dose: 240.0 mg/kg/injection, schedule: Q01DX005 (ip), vehicle: saline with Tween-80 89 % of control

COC(=O)C1C(O)CCC2CN3CCc4c([nH]c5cccc(OC)c45)C3CC21 (stereo not given)
inactive: [8] 104 % of control | [9] 105 % of control | [14] 104 % of control | [15] 101 % of control

O=C(O)C(=O)O.[NH-]CCC[NH-].[Pt+2]
active: dose: 2.5 mg/kg/injection, schedule: Q04DX003 (ip), vehicle: other 153 % of control | dose: 5.0 mg/kg/injection, schedule: Q04DX003 (ip), vehicle: other 160 % of control | dose: 6.25 mg/kg/injection, schedule: Q04DX002 (ip), vehicle: saline 158 % of control | dose: 12.5 mg/kg/injection, schedule: Q04DX002 (ip), vehicle: saline 203 % of control
inactive: dose: 0.63 mg/kg/injection, schedule: Q04DX003 (ip), vehicle: other 88 % of control

O=C(O)Cc1cn2ccccc2n1
inactive: [6] 96 % of control | [7] 100 % of control | dose: 400.0 mg/kg/injection, schedule: Q01DX001 (ip), vehicle: Klucel (hydroxypropylcellulose) (HPC) 93 % of control

C=CCC12CC(C)OC1=Nc1ccccc1NC2=O (stereo not given)
inactive: dose: 50.0 mg/kg/injection, schedule: Q01DX005 (ip), vehicle: saline with Tween-80 98 % of control | dose: 100.0 mg/kg/injection, schedule: Q01DX005 (ip), vehicle: saline with Tween-80 100 % of control | dose: 200.0 mg/kg/injection, schedule: Q01DX005 (ip), vehicle: saline with Tween-80 104 % of control

CC(C)(C(=O)O[Si](C)(C)C)/C(=C/[Si](C)(C)C)O[Si](C)(C)C
inactive: dose: 100.0 mg/kg/injection, schedule: Q01DX001 (ip), vehicle: saline with Tween-80 103 % of control | dose: 200.0 mg/kg/injection, schedule: Q01DX001 (ip), vehicle: saline with Tween-80 99 % of control | dose: 400.0 mg/kg/injection, schedule: Q01DX001 (ip), vehicle: saline with Tween-80 102 % of control

C=C1C(=O)OC2(CCCCC)CCCCC12 (stereo not given)
inactive: [2] 96 % of control | [3] 99 % of control | [4] 96 % of control

Cc1ccc2nccnc2c1
inactive: [2] 101 % of control | [3] 99 % of control | [4] 101 % of control | [5] 100 % of control

c1ccc2nc3nc4ccccc4nc3nc2c1
inactive: dose: 15.0 mg/kg/injection, schedule: Q01DX009 (ip), vehicle: saline with Tween-80 92 % of control | dose: 30.0 mg/kg/injection, schedule: Q01DX009 (ip), vehicle: saline with Tween-80 114 % of control | dose: 50.0 mg/kg/injection, schedule: Q01DX005 (ip), vehicle: Klucel + Tween-80 90 % of control | [10] 103 % of control | dose: 60.0 mg/kg/injection, schedule: Q01DX009 (ip), vehicle: saline with Tween-80 111 % of control | dose: 100.0 mg/kg/injection, schedule: Q01DX005 (ip), vehicle: Klucel + Tween-80 96 % of control | [11] 113 % of control | dose: 200.0 mg/kg/injection, schedule: Q01DX005 (ip), vehicle: Klucel + Tween-80 93 % of control | dose: 200.0 mg/kg/injection, schedule: Q01DX009 (ip), vehicle: saline with Tween-80 107 % of control

CCCCCCC1(/C=C/c2ccc(Cl)c(Cl)c2)SCCS1
inactive: dose: 12.0 mg/kg/injection, schedule: Q01DX009 (ip), vehicle: saline with Tween-80 100 % of control | dose: 12.5 mg/kg/injection, schedule: Q01DX009 (ip), vehicle: saline 105 % of control | dose: 25.0 mg/kg/injection, schedule: Q01DX009 (ip), vehicle: saline with Tween-80 107 % of control | [1] 102 % of control | [10] 104 % of control | [11] 100 % of control | [3] 102 % of control and 90 % of control

O=S(=O)(Nc1nccs1)c1ccc(NCc2c3ccccc3nc3ccccc23)cc1
inactive: dose: 100.0 mg/kg/injection, schedule: Q04DX002 (ip), vehicle: Klucel (hydroxypropylcellulose) (HPC) 101 % of control | dose: 200.0 mg/kg/injection, schedule: Q04DX002 (ip), vehicle: Klucel (hydroxypropylcellulose) (HPC) 100 % of control | dose: 400.0 mg/kg/injection, schedule: Q04DX002 (ip), vehicle: Klucel (hydroxypropylcellulose) (HPC) 105 % of control

CC(C)C[NH-].CC(C)C[NH-].[Cl][Pt+2]([Cl])([Cl])[Cl]
active: dose: 5.56 mg/kg/injection, schedule: Q01DX009 (ip), vehicle: saline with Tween-80 169 % of control | dose: 8.33 mg/kg/injection, schedule: Q01DX009 (ip), vehicle: saline with Tween-80 166 % of control | dose: 12.5 mg/kg/injection, schedule: Q01DX009 (ip), vehicle: saline with Tween-80 166 % of control and 181 % of control

CSc1c2c(c(C)c3c1[nH]c1ccccc13)C=NCC2
inactive: dose: 6.25 mg/kg/injection, schedule: Q04DX002 (ip), vehicle: distilled water + Tween-80 102 % of control | dose: 12.5 mg/kg/injection, schedule: Q04DX002 (ip), vehicle: distilled water + Tween-80 89 % of control | dose: 25.0 mg/kg/injection, schedule: Q04DX002 (ip), vehicle: distilled water + Tween-80 98 % of control | dose: 50.0 mg/kg/injection, schedule: Q04DX002 (ip), vehicle: distilled water + Tween-80 88 % of control | dose: 100.0 mg/kg/injection, schedule: Q04DX002 (ip), vehicle: distilled water + Tween-80 88 % of control

c1cc(-c2ncc3ccncc3n2)ccn1
inactive: dose: 60.0 mg/kg/injection, schedule: Q01DX005 (ip), vehicle: Klucel (hydroxypropylcellulose) (HPC) 109 % of control | dose: 120.0 mg/kg/injection, schedule: Q01DX005 (ip), vehicle: Klucel (hydroxypropylcellulose) (HPC) 100 % of control | dose: 240.0 mg/kg/injection, schedule: Q01DX005 (ip), vehicle: Klucel (hydroxypropylcellulose) (HPC) 98 % of control

COC1OC(CO)C(O)C(NC(=O)N(C)N=O)C1O (stereo not given)
active: [3] 169 % of control and 187 % of control | [4] 218 % of control and 232 % of control
inactive: [5] 105 % of control and 117 % of control

NC(=O)c1cncc(C(=O)O)c1
inactive: [9] 106 % of control | [14] 101 % of control | [15] 100 % of control

N#CC(C#N)=CN(CCO)CCO
inactive: dose: 50.0 mg/kg/injection, schedule: Q01DX005 (ip), vehicle: saline 99 % of control | dose: 100.0 mg/kg/injection, schedule: Q01DX005 (ip), vehicle: saline 99 % of control | dose: 200.0 mg/kg/injection, schedule: Q01DX005 (ip), vehicle: saline 97 % of control
